“And” between values parts separate entries of the source, which are not always exact repeats. Identical values can stand only once.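 Compound exposure: 48 hours, 5 concentrations, 96-well plates. Here, GI50 denotes the concentration required for 50% inhibition of growth. Definition used: TGI = concentration required for complete inhibition of growth.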
Columns and labels:
Assay in all cases: NCI-60 cell line screen, 48 h
T-47D breast = tested on: T-47D breast
BT-549 breast = tested on: BT-549 breast
HS 578T breast = tested on: HS 578T breast
HOP-18 NSCLC = tested on: HOP-18 NSCLC
KM20L2 colon = tested on: KM20L2 colon
DMS 273 small cell lung = tested on: DMS 273 small cell lung
MDA-N = tested on: MDA-N
M19-MEL melanoma = tested on: M19-MEL melanoma
RXF-631 renal = tested on: RXF-631 renal

| SMILES | GI50 (T-47D breast) | TGI (T-47D breast) | GI50 (BT-549 breast) | TGI (BT-549 breast) | GI50 (HS 578T breast) | TGI (HS 578T breast) | TGI (HOP-18 NSCLC) | TGI (KM20L2 colon) | TGI (DMS 273 small cell lung) | TGI (MDA-N) | GI50 (MDA-N) | TGI (M19-MEL melanoma) | TGI (RXF-631 renal) |
| --- | --- | --- | --- | --- | --- | --- | --- | --- | --- | --- | --- | --- | --- |
| C/C1=C/C(=O)O[C@@H]2C[C@@H](CC[C@H](C)/C=C\C=C\CC1)O[C@@](O)([C@@H]1CSC(=O)N1CO)C2 | 0.0593 µM | 47.6 µM | 0.0592 µM | 20 µM | 0.0174 µM | 0.0606 µM |  |  |  |  |  |  |  |
| Cc1ccc(-n2c3nc(=O)n(C)c(=O)c-3nc3ccccc32)cc1 |  |  |  |  |  |  | 40.4 µM | 26.3 µM | 20.1 µM |  |  |  |  |
| Cc1ccc2c(c1)C(C)Cc1c(ncnc1-n1cnc3cc(C)ccc31)N2C (stereo not drawn) |  |  | 0.0281 µM | 0.338 µM | 0.0459 µM | 23 µM |  |  |  |  |  |  |  |
| COC(=O)[C@H]1C(=O)[C@@]2(C)[C@H]([C@H](OC(=O)c3ccccc3)[C@]3(O)C[C@H](OC(=O)[C@H](O)[C@@H](NC(=O)c4ccc(F)cc4)c4ccccc4)C(C)=C1C3(C)C)[C@]1(OC(C)=O)CO[C@@H]1C[C@@H]2O | 0.0106 µM | > 25 µM | 0.011 µM | 0.833 µM | 0.00363 µM | 0.0231 µM |  |  |  |  |  |  |  |
| COc1cc2c3c(c4ccc(OC)c(OC)c4c2cc1OC)CN1CCC[C@@H]1C3 |  |  |  | 2.36 µM |  | 0.593 µM |  |  |  | 12.2 µM |  |  |  |
| COc1cc(-c2nc(NC(C)=O)sc2-c2ccnc(NCCNS(=O)(=O)c3ccccc3)n2)ccc1Cl | 2.69 µM | > 100 µM | 3.1 µM | > 100 µM | 6.61 µM | > 100 µM |  |  |  |  |  |  |  |
| CN1CCC(CNc2ccc3ncc(-c4cccc(OC(F)(F)F)c4)n3n2)CC1 | 1.44 µM and 1.28 µM | 3.01 µM and 3.56 µM | 2.45 µM and 4.35 µM | 10.9 µM and > 10 µM | 1.66 µM and 1.63 µM | 4.5 µM and 7.17 µM |  |  |  |  |  |  |  |
| COc1cccc(Cn2c(-c3nonc3N)nc3ccccc32)c1 | 0.475 µM | > 100 µM | 0.365 µM | 68.5 µM |  |  |  |  |  |  |  |  |  |
| C=CC(=O)N1C/C(=C\c2ccccc2)C(=O)/C(=C/c2ccccc2)C1 |  | 18.4 µM |  | 4.24 µM | 2.22 µM | 14.8 µM | 9.97 µM | 3.1 µM | 2.13 µM | 1.07 µM | 0.427 µM | 2.48 µM |  |
| O=C(CSc1nc2ccccc2nc1-c1ccccc1)Nc1ccc(Cl)cc1 | 13 µM | > 100 µM | 33.5 µM | > 100 µM | 16.1 µM | 70 µM |  |  |  |  |  |  |  |
| Sc1ccc2ccccc2c1CNCc1ccccc1 |  | > 100 µM |  | 48.7 µM |  | 67.2 µM |  |  |  | 37.6 µM |  |  |  |
| O=Nc1ccc(O)c2ccccc12 |  |  | 1.93 µM | 3.35 µM | 0.868 µM | 4.18 µM |  |  |  |  |  |  |  |
| O=C1/C(=C\c2ccc(F)cc2)CN(C(=O)c2ccc([N+](=O)[O-])cc2)C/C1=C\c1ccc(F)cc1 | 6.61 µM | > 100 µM | 2 µM | 4.41 µM | 2.29 µM | 8.79 µM |  |  |  |  |  |  |  |
| Cc1ccc(S(=O)(=O)Oc2ccc([N+](=O)[O-])cc2[N+](=O)[O-])cc1 | 15.3 µM | 45 µM | 5.41 µM | 18 µM | 21.5 µM | > 100 µM |  |  |  |  |  |  |  |
| CC(C)C1C(=O)NC(CO)Cc2c[nH]c3c(C(c4c[nH]c5ccccc45)C(O)CO)ccc(c23)N1C (stereo not drawn) |  |  |  |  |  |  | > 100 µM |  | > 100 µM |  |  | > 100 µM |  |
| C#Cc1c(C)c(/C=C/C(C)=C/C=C/C(C)=C/C(=O)OC)n(C)c1C |  |  |  |  |  |  |  | > 100 µM |  |  |  | > 100 µM | > 100 µM |

| SMILES | GI50 (T-47D breast) | TGI (T-47D breast) | GI50 (BT-549 breast) | TGI (BT-549 breast) | GI50 (HS 578T breast) | TGI (HS 578T breast) | TGI (HOP-18 NSCLC) | TGI (KM20L2 colon) | TGI (DMS 273 small cell lung) | TGI (MDA-N) | GI50 (MDA-N) | TGI (M19-MEL melanoma) | TGI (RXF-631 renal) |
| --- | --- | --- | --- | --- | --- | --- | --- | --- | --- | --- | --- | --- | --- |
| CCOC(=O)C1(C#N)C(c2ccccc2)CC(O)(c2ccc([N+](=O)[O-])cc2)C(C(=O)c2ccc([N+](=O)[O-])cc2)C1c1ccccc1 (stereo not drawn) |  |  |  |  |  |  | > 100 µM | > 100 µM | > 100 µM |  |  | > 100 µM |  |
| NC(=O)/C(=C\c1ccncc1)c1cccc2ccccc12 |  | > 100 µM |  | > 100 µM |  | > 100 µM |  |  |  | > 100 µM |  |  |  |
| CN(C)CCCNC(=O)c1ccc2oc3cc4ccccc4c(=O)n3c2c1 | > 50 µM | > 50 µM | 24.2 µM | > 50 µM |  |  |  |  |  |  |  |  |  |
| C[N+](C)(C)CC(=O)N/N=C(\CCC(=O)NCCc1ccccc1)CC(=O)c1ccccc1 |  |  |  |  |  |  | > 100 µM | > 100 µM | > 100 µM |  |  | > 100 µM |  |
| NCCCCCCCCn1c2c(c3ccccc3c1=O)C(=O)c1ccccc1-2 | 4.97 µM | 36.6 µM | 5.18 µM | 23.3 µM | 3.83 µM | 22.2 µM |  |  |  |  |  |  |  |
| CCOC(=O)C[C@@H](C)[C@]1(C(=O)OC)CCCC1=O |  |  |  |  |  |  | > 100 µM | > 100 µM | > 100 µM |  |  | > 100 µM |  |
| COc1cc(Br)c(CC2(C#N)c3ccccc3C3C(N2C(=O)c2ccccc2)C3(Cl)Cl)cc1OC (stereo not drawn) |  |  |  |  |  |  | > 65.5 µM | > 65.5 µM | > 65.5 µM |  |  |  |  |
| COc1ccccc1-c1cc(/C=C2\C(=O)Nc3ncc(Br)cc32)cc(Br)c1O | 10.6 µM | > 25 µM | 14.2 µM | > 25 µM | 7.67 µM | > 25 µM |  |  |  |  |  |  |  |
| C=C(C)[C@@H]1CC[C@]2(C(N)=O)CC[C@]3(C)[C@H](CC[C@@H]4[C@@]5(C)CC[C@H](O)C(C)(C)[C@@H]5CC[C@]43C)[C@@H]12 | 4.55 µM | 26.9 µM | 3.99 µM | 19.7 µM | 5.74 µM | > 100 µM |  |  |  |  |  |  |  |
| Nc1ccccc1SC(CC(=O)c1ccccc1)c1ccc([N+](=O)[O-])cc1 (stereo not drawn) | 12.1 µM | 36.3 µM | 13.6 µM | 26.6 µM | 18.1 µM | 47.6 µM |  |  |  |  |  |  |  |
| CCNCCC1(CC)C(=O)NC(=O)NC1=O |  | > 100 µM |  | > 100 µM |  | > 100 µM |  |  |  |  |  |  |  |
| CCC(=O)C1(c2ccccc2)CCN(C)CC1 |  | > 100 µM |  |  |  | > 100 µM |  |  |  | > 100 µM |  |  |  |
| COc1c2ccoc2cc2oc(=O)ccc12 |  | > 100 µM |  | > 100 µM |  | > 100 µM |  |  |  | > 100 µM |  |  |  |
| C=CCCOC(=O)CO[N+](=O)[O-] |  |  |  |  |  |  |  | > 100 µM | > 100 µM |  |  | > 100 µM |  |
| O=c1[nH]cc(/C=N\Nc2ccccc2)c(=O)[nH]1 |  | > 100 µM |  | > 100 µM |  | > 100 µM |  |  |  | > 100 µM |  |  |  |
| COc1cc(OC)c2ssc3c(OC)cc(OC)c4ssc1c2-c43 |  |  |  |  |  |  | > 100 µM | > 100 µM | > 100 µM |  |  | > 100 µM |  |

— PubChem BioAssay (NCI)
